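Exposure lasted 48 hours, with cells grown in 96-well plates and compounds tested at five concentrations. Abbreviation: GI50, concentration required for 50% inhibition of growth.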 Activity calls are given as the source filed them. Cut-off read from the data, not from the text of the source: active = GI50 up to about 1.1 µM and inactive = higher.
Tests used:
Experiment in all cases: DTP human tumour cell line panel, 48 h
[1] = test system: SW-620
[2] = test system: Malme-3M
[3] = test system: OVCAR-3
[4] = test system: NCI-H460
[5] = test system: NCI-H522
[6] = test system: SF-295
[7] = test system: TK-10
[8] = test system: IGROV-1
[9] = test system: HCT-116
[10] = test system: SR
[11] = test system: SK-MEL-5
[12] = test system: HL-60
[13] = test system: LOX IMVI
[14] = test system: M14
[15] = test system: OVCAR-4

Measured: GI50

COc1ccc(OC)c2c(C(C)=O)cccc12
inactive: [1] > 100 µM | [2] > 100 µM | [3] > 100 µM | [4] > 100 µM | [5] > 100 µM | [6] > 100 µM | [7] > 100 µM | [8] > 100 µM | [9] > 100 µM | [10] > 100 µM | [11] > 100 µM | [12] 85.1 µM

COc1cc(Nc2cc(Cl)cc(Cl)c2)nc(N)n1
inactive: [1] 19.7 µM | [2] 21.3 µM | [3] 17.2 µM | [4] 16.6 µM | [5] 20.4 µM | [6] 18.6 µM | [7] 21.6 µM | [8] 18.6 µM | [9] 16.9 µM | [13] 16.3 µM | [14] 20.1 µM | [11] 15.3 µM | [15] 17.9 µM

CC(Cc1ccc(Cl)cc1Cl)NO (stereo not given)
inactive: [1] > 100 µM | [2] > 100 µM | [3] > 100 µM | [5] 66.5 µM | [6] > 100 µM | [7] > 100 µM | [8] > 100 µM | [9] 83.6 µM | [13] > 100 µM | [10] > 100 µM | [14] > 100 µM | [11] 95.7 µM | [15] > 100 µM

CCOC(=O)/C(C(=O)Nc1ccc(Cl)cc1)=C(/N)N1CCOCC1
inactive: [1] > 100 µM | [2] > 100 µM | [3] > 100 µM | [4] > 100 µM | [5] > 100 µM | [6] > 100 µM | [7] > 100 µM | [8] > 100 µM | [9] > 100 µM | [13] > 100 µM | [14] > 100 µM | [12] > 100 µM | [15] > 100 µM

COc1cc(Nc2cnc3cc(F)c(F)cc3n2)cc(OC)c1OC
inactive: [1] > 100 µM | [2] > 100 µM | [3] > 100 µM | [4] > 100 µM | [5] 67.1 µM | [6] > 100 µM | [7] > 100 µM | [8] > 100 µM | [9] > 100 µM | [13] 40 µM | [14] > 100 µM | [11] > 100 µM | [12] 24.9 µM | [15] > 100 µM
